Results from ChEMBL document CHEMBL1201862, “PubChem BioAssay data set” (2004).
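Exposure lasted 48 hours, with cells grown in 96-well plates and compounds tested at five concentrations. Abbreviation: GI50, concentration required for 50% inhibition of growth.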 Calls of active or inactive are those of the source. Rule as the data show it: active = GI50 up to about 1.1 µM and inactive = higher.

Legend:
Test in all cases: growth of human tumour cells (NCI), 48 h
[1] = tested on: MDA-MB-231
[2] = tested on: Hs-578T
[3] = tested on: HCC 2998
[4] = tested on: NCI-H23
[5] = tested on: MDA-MB-435
[6] = tested on: SK-MEL-28
[7] = tested on: A498
[8] = tested on: PC-3
[9] = tested on: HOP-92
[10] = tested on: SF-268
[11] = tested on: KM12
[12] = tested on: NCI-H460
[13] = tested on: ACHN
[14] = tested on: RPMI-8226
[15] = tested on: SNB-19
[16] = tested on: UACC-62
[17] = tested on: SN12C
[18] = tested on: TK-10
[19] = tested on: HL-60
[20] = tested on: MCF7

Row | SMILES | GI50 [1] | GI50 [2] | GI50 [3] | GI50 [4] | GI50 [5] | GI50 [6] | GI50 [7] | GI50 [8] | GI50 [9] | GI50 [10] | GI50 [11] | GI50 [12] | GI50 [13] | GI50 [14] | GI50 [15] | GI50 [16] | GI50 [17] | GI50 [18] | GI50 [19] | GI50 [20]
1 | CC(C)=CCNc1ncnc2c1ncn2CCC(=O)O | > 100 µM (inactive) | > 100 µM (inactive) | > 100 µM (inactive) | > 100 µM (inactive) | > 100 µM (inactive) | > 100 µM (inactive) | > 100 µM (inactive) | > 100 µM (inactive) | > 100 µM (inactive) | > 100 µM (inactive) | > 100 µM (inactive) | > 100 µM (inactive) | > 100 µM (inactive) | > 100 µM (inactive) | > 100 µM (inactive) | > 100 µM (inactive) | > 100 µM (inactive) | > 100 µM (inactive) | > 100 µM (inactive) | > 100 µM (inactive)
2 | CC1(c2ccc(F)cc2)CC(c2ccc(F)cc2)=C(C#N)C(=C(C#N)C#N)N1 (stereo not given) | 21.2 µM (inactive) | 23.3 µM (inactive) | 14.5 µM (inactive) | 17.3 µM (inactive) | 16.6 µM (inactive) | 24 µM (inactive) | 19.6 µM (inactive) | 16.3 µM (inactive) | 12.6 µM (inactive) | 15.8 µM (inactive) | 15 µM (inactive) | 18 µM (inactive) | 16.6 µM (inactive) | 5.55 µM (inactive) | 17.4 µM (inactive) | 14.3 µM (inactive) | 16.7 µM (inactive) | 18.1 µM (inactive) | 6.31 µM (inactive) | 14.5 µM (inactive)
3 | Nc1nc(SCc2ccccc2)c2ncn(Cc3ccccc3)c2n1 | > 100 µM (inactive) | > 100 µM (inactive) | > 100 µM (inactive) | > 67.8 µM (inactive) | > 71.8 µM (inactive) | > 100 µM (inactive) | > 44.9 µM (inactive) | > 100 µM (inactive) | > 85.9 µM (inactive) | > 84.7 µM (inactive) | > 86.9 µM (inactive) | > 79.4 µM (inactive) | > 100 µM (inactive) | > 75.9 µM (inactive) | > 100 µM (inactive) | > 83 µM (inactive) | > 100 µM (inactive) | > 100 µM (inactive) | 4.56 µM (inactive) | > 90.8 µM (inactive)
4 | O=C(O)c1c(CC(Cc2ccc3c(c2)CCCC3)C(=O)O)ccc2c1CCCC2 (stereo not given) | > 100 µM (inactive) | > 100 µM (inactive) | > 100 µM (inactive) | > 100 µM (inactive) | > 100 µM (inactive) | > 100 µM (inactive) | > 100 µM (inactive) | > 100 µM (inactive) | > 100 µM (inactive) | > 100 µM (inactive) | > 100 µM (inactive) | > 100 µM (inactive) | > 100 µM (inactive) | > 100 µM (inactive) | > 100 µM (inactive) | > 100 µM (inactive) | > 100 µM (inactive) | > 100 µM (inactive) | > 100 µM (inactive) | < 0.01 µM (active)
5 | CC(C)/C(Cl)=N/OC(=O)Nc1ccc(Cl)c(Cl)c1 | 14.9 µM (inactive) | 23.7 µM (inactive) | 14.9 µM (inactive) | 15.3 µM (inactive) | 5.68 µM (inactive) | 2.01 µM (inactive) | 18 µM (inactive) | 16.6 µM (inactive) | 1.72 µM (inactive) | 18.2 µM (inactive) | 17.5 µM (inactive) | 17 µM (inactive) | 1.99 µM (inactive) | 2.36 µM (inactive) | 21.5 µM (inactive) | 13.6 µM (inactive) | 1.91 µM (inactive) | 5.86 µM (inactive) | 1.76 µM (inactive) | 9.93 µM (inactive)
6 | COC(=O)c1cc2cc3c(c(O)c2c(=O)o1)O[C@@]1(Oc2c(O)c4c(c(O)c2[C@H]1OC1CC(OC)C(O)C(C)O1)C(=O)C=C(OC)C4=O)[C@H](O)C3 (stereo not given in full) | 1.27 µM (inactive) | 1.17 µM (inactive) | 1.2 µM (inactive) | 0.94 µM (active) | 1.09 µM (active) | 0.659 µM (active) | 0.789 µM (active) | 1.36 µM (inactive) | 2.41 µM (inactive) | 0.986 µM (active) | 0.904 µM (active) | 0.685 µM (active) | 0.855 µM (active) | 0.547 µM (active) | 1 µM (active) | 0.55 µM (active) | 1.3 µM (inactive) | 2.07 µM (inactive) | 0.719 µM (active) | 1.14 µM (inactive)
7 | CC(C)(CO)NC1=C(Cl)C(=O)c2c(O)ccc(O)c2C1=O | 1.61 µM (inactive) | 0.743 µM (active) | 1.43 µM (inactive) | 1.58 µM (inactive) | 1.15 µM (inactive) | 1.89 µM (inactive) | 1.84 µM (inactive) | 1.87 µM (inactive) | 1.85 µM (inactive) | 2.61 µM (inactive) | 1.43 µM (inactive) | 2.42 µM (inactive) | 1.7 µM (inactive) | 2.05 µM (inactive) | 1.77 µM (inactive) | 1.35 µM (inactive) | 1.56 µM (inactive) | 1.88 µM (inactive) | 0.233 µM (active) | 1.33 µM (inactive)
